Results reported in patent US20230158031A1, “Treatment of Acute Respiratory Distress Syndrome and Other Disorders Involving Cytokine Storm Using BTK Inhibitors” (Principia Biopharma Inc., priority 2020, published 2023).

Key:
neutrophils [1] = experiment: Neutrophil recruitment to the necrotic zone following sterile liver injury (heat injury); type: in vivo; conditions: 4 h after heat injury; spinning disc time-lapse microscopy; FIG. 9B
neutrophils [2] = experiment: Neutrophil intraluminal crawling following fMLP-mediated arrest in vivo (intravital microscopy, cremaster); conditions: compared to vehicle control; cremaster superfused with fMLP (10 μM), time-lapse microscopy 2 h; FIG. 9A
Text: Following post-adhesion strengthening, neutrophils undertake Mac-1 (an integrin) dependent migratory activity on the vascular side of the vessel wall prior to transmigration ([…] and Zarbock 2013). Previous studies have highlighted the importance of this step for successful neutrophil recruitment (Phillipson et al. 2006). To investigate the effects of Btk inhibition on this step of the leukocyte recruitment cascade, intraluminal crawling following fMLP (N-formylmethionine-leucyl-phenylalanine)-mediated arrest in vivo was investigated. Using intravital microscopy, intravascular crawling of neutrophils was examined as described previously (Phillipson et al. 2006). Briefly, anti-Gr-1 antibody (clone RB6-8C5), labelled with Alexa Fluor 488 (Molecular Probes, Eugene, Oreg., USA), was injected via the cannulated carotid artery prior to the experiment. Following preparation and exteriorization, the cremaster was superfused with fMLP (10 μM) and time-lapse microscopy was performed for 2 h. The number of adherent cells was determined.

[3] = test system: anti-GBM glomerulonephritis; experiment: Mouse anti-GBM glomerulonephritis model; type: in vivo; conditions: for kidney pathology: kidney histology after Study Day 10, relative to Dex 1 mg/kg QD
Method: The mouse anti-GBM glomerulonephritis model involves antibody mediated autoimmunity, and the model is histologically and mechanistically similar to glomerulonephritis in humans. The model also includes kidney deposition of immune complexes (IC), targeting glomerular basement membrane. The efficacy of Compound (IB) (also referred to as PRN1008) relative to the corticosteroid dexamethasone (Dex) was tested in a mouse anti-GBM glomerulonephritis model according to the design shown in FIG. 1. Briefly, to induce glomerulonephritis, mice were pre-sensitized with sheep IgG/FCA (Study Day −5). Five days later (Study Day 0), the mice received anti-GBM sheep IgG. Treatment with vehicle, Compound (IB), or Dex with various dosage regimes (Compound (IB): 10 mg/kg, 20 mg/kg, or 40 mg/kg QD or 20 mg/kg BID; Dex: 1 mg/kg QD; Vehicle: QD or BID) began at Study Day −1, one day prior to injection with anti-GBM sheep IgG. Treatment continued until Study Day 10, for […] treatment in total. Urine protein analysis was conducted on Study Days −6, −4, −1, 1, 3, 6, 8, and 10. Following Study Day 10, mice serum BUN levels were analyzed as a measure of kidney function, and kidney histology was performed.

[4] = test system: BioMAP human primary cell-based co-culture systems; experiment: BioMAP Diversity PLUS Panel; conditions: FIG. 8
Text: The BioMAP Diversity Plus Panel (FIG. 7) provides broad phenotypic profiles for pharmaceutically active agents. The panel uses 12 individual BioMAP human primary cell-based co-culture systems to predictively model drug effects on multiple tissues and disease states, providing 148 clinically relevant biomarker readouts. […] The LDLR gene is associated with the low-density lipoprotein receptor, which binds low-density lipoproteins that carry cholesterol in blood. […] Decreased MCP-1, sTNFα, eotaxin-3, ICAM-1, IL-la, and IL-8 and increased sPGE2 is associated with PRN1008's inflammation related activities. Decreased CD38, sIgG, sIL-17A, sIL-2, sIL-6, and M-CSF and increased CD69 are associated with PRN1008's immunomodulatory activities. Decreased MMP-9, uPA, and PAI-I is associated with PRN 1008's tissue remodeling activities. Decreased thrombomodulin (TM) and modulated tissue factor (TF) is associated with PRN1008's hemostasis-related activities. Thus, the BioMAP Diversity Plus Panel data for PRN1008 supports its anti-inflammatory and cytokine inhibition mechanisms.

[5] = inflammation related activities

## CC(C)(C)C=C(C#N)C(=O)N1CCC[C@@H](n2nc(-c3ccc(Oc4ccccc4)cc3F)c3c(N)ncnc32)C1 [Compound (IA), (R)-2-(3-(4-amino-3-(2-fluoro-4-phenoxyphenyl)-1H-pyrazolo[3,4-d]pyrimidin-1-yl)piperidine-1-carbonyl)-4,4-dimethylpent-2-enenitrile]
Neutrophils [1]
  neutrophil recruitment following sterile liver injury: abolish neutrophil recruitment
Neutrophils [2]
  migratory activity of neutrophils (arrested cells that crawled): severely decreased

## CC(C)(C=C(C#N)C(=O)N1CCC[C@@H](n2nc(-c3ccc(Oc4ccccc4)cc3F)c3c(N)ncnc32)C1)N1CCN(C2COC2)CC1 [Compound (IB), 2-[(3R)-3-[4-amino-3-(2-fluoro-4-phenoxy-phenyl)pyrazolo[3,4-d]pyrimidin-1-yl]piperidine-1-carbonyl]-4-methyl-4-[4-(oxetan-3-yl)piperazin-1-yl]pent-2-enenitrile]
[3]; 10, 20 or 40 mg/kg QD or 20 mg/kg BID, FIG. 5
  kidney weight gain (a surrogate for kidney inflammation): dose dependent inhibition
[3]; 10, 20 or 40 mg/kg QD or 20 mg/kg BID, Study Day -1 to 10, FIG. 2
  serum blood urea nitrogen (BUN) levels: dose dependent inhibition
[3]; 10, 20 or 40 mg/kg QD or 20 mg/kg BID, Study Day -1 to 10, FIG. 3
  severe proteinuria: dose dependent inhibition
[3]; FIG. 6
  kidney pathology: reduced kidney pathology
[3]; FIG. 6, listed as PRN1008
  kidney pathology: significantly reduced kidney pathology, superior to a steroid comparator (Dex)
[3]; urine protein analysis Study Days -6 to 10, FIG. 4
  proteinuria during the study: reduced proteinuria
[4]; BioMAP Profile
  LDLR: decreased
  anti-proliferative activity, B cells: Anti-proliferative activities
  anti-proliferative activity, T cells: Anti-proliferative activities
  anti-proliferative activity, coronary artery smooth muscle cells: Anti-proliferative activities
  anti-proliferative activity, endothelial cells: Anti-proliferative activities
  anti-proliferative activity, fibroblasts: Anti-proliferative activities
[4]; hemostasis-related activities
  thrombomodulin (TM): Decreased
  tissue factor (TF): modulated
[4]; immunomodulatory activities
  CD38: Decreased
  CD69: increased
  M-CSF: Decreased
  sIL-2: Decreased
  sIL-6: Decreased
  sIL-17A: Decreased
  sIgG: Decreased
[4]; [5]
  ICAM-1: Decreased
  IL-8: Decreased
  IL-la: Decreased
  MCP-1: Decreased
  eotaxin-3: Decreased
  sPGE2: increased
  sTNFα: Decreased
[4]; tissue remodeling activities
  MMP-9: Decreased
  PAI-I: Decreased
  uPA: Decreased
